Data: BindingDB's records for doi:10.1021/jm300377g (University of Lille, 2012)

assay: Inhibition of EthR in Mycobacterium tuberculosis H37Rv-GFP infected in mouse Raw 264.7 cells assessed as compound concentration allowing 0.1 uM ethionamide to inhibit 50% microbial growth by automated fluorescent confocal microscopy

Structure (SMILES)	EC50
COc1cccc(SCC(=O)Nc2ccc(-c3nc4ccccc4s3)cc2)c1	> 10000 nM
COc1cccc(OCC(=O)Nc2ccc(Cl)cc2)c1	1600 nM
Cc1ccc2cc(NC(=O)COc3ccccc3F)ccc2n1	2200 nM
N#Cc1cccc(OCC(=O)Nc2ccc(-c3nc4ccccc4s3)cc2)c1	340 nM
COc1cccc(OCC(=O)Nc2ccc(-c3nc4ccccc4s3)cc2)c1	210 nM
Cc1ccc(-n2nc3ccc(NC(=O)COc4ccccc4C)cc3n2)cc1	> 10000 nM
